{
  "source": "ChEMBL document CHEMBL1121878",
  "about": "“Synthesis of seleno- and thioguanine-platinum(II) complexes and their antitumor activity in mice” (1981)",
  "key": {"L1210 [1]": {"system": "L1210", "test": "(§1) Ratio of the median survival time (treated(T) versus control(C)) at a dose of 50 mg/kg, on days 1 and 5", "assay_type": "functional, Mus musculus"}, "L1210 [2]": {"system": "L1210", "test": "Median survival time at a compound dose of 75 mg/kg, in mice bearing L1210 cells on days 1 and 5", "assay_type": "functional, Mus musculus"}, "L1210 [3]": {"system": "L1210", "test": "Ratio of the median survival time (treated(T) versus control(C)) at a dose of 75 mg/kg on days 1 and 5", "assay_type": "functional, Mus musculus"}, "L1210 [4]": {"system": "L1210", "test": "Ratio of the median survival time (treated(T) versus control(C)) at a dose of 25 mg/kg, on days 1 and 5", "assay_type": "functional, Mus musculus"}, "L1210 [5]": {"system": "L1210", "test": "Median survival time when no dose was administered in mice bearing L1210 cells on days 1 and 5", "assay_type": "functional, Mus musculus"}, "[6]": {"test": "The number of mice survived to that of total at a dose of 25 mg/kg on 30th day; 0/5", "assay_type": "functional"}, "[7]": {"test": "The number of mice survived to that of total at a dose of 50 mg/kg on 30th day; 0/5", "assay_type": "functional"}, "L1210 [8]": {"system": "L1210", "test": "Median survival time at a compound dose of 25 mg/kg, in mice bearing L1210 cells on days 1 and 5", "assay_type": "functional, Mus musculus"}, "[9]": {"test": "The number of mice survived to that of total at a dose of 75 mg/kg on 30th day; 0/5", "assay_type": "functional"}, "L1210 [10]": {"system": "L1210", "test": "Median survival time at a compound dose of 50 mg/kg, in mice bearing L1210 cells on days 1 and 5", "assay_type": "functional, Mus musculus"}, "L1210 [11]": {"system": "L1210", "test": "(§2) Median survival time at a compound dose of 100 mg/kg, in mice bearing L1210 cells on days 1 and 5", "assay_type": "functional, Mus musculus"}, "L1210 [12]": {"system": "L1210", "test": "In vitro inhibitory concentration required for 50% inhibition of L1210 cell growth", "assay_type": "functional", "conditions": "Mus musculus, read-out: ID50 (the source's name)"}, "L1210 [13]": {"system": "L1210", "test": "(§3) Ratio of the median survival time (treated(T) versus control(C)) at a dose of 100 mg/kg, on days 1 and 5", "assay_type": "functional, Mus musculus"}, "L1210 [14]": {"system": "L1210", "test": "Effect dose of 50 mg/kg on day 3, before L1210 cell transplantation in mice", "assay_type": "functional, Mus musculus"}, "[15]": {"test": "The number of mice survived to that of total at a dose of 100 mg/kg on 30th day; 3/5", "assay_type": "functional"}, "[16]": {"test": "The number of mice survived to that of total at a dose of 50 mg/kg on 30th day; 1/5", "assay_type": "functional"}, "[17]": {"test": "The number of mice survived to that of total when no compound dose was given on 30th day", "assay_type": "functional"}, "[18]": {"test": "The number of mice survived to that of total at a dose of 25 mg/Kg on 30th day: 4/5", "assay_type": "functional"}, "Mus musculus [19]": {"system": "Mus musculus", "test": "as §3", "assay_type": "functional"}, "[20]": {"test": "The number of mice survived to that of total at a dose of 100 mg/kg on 30th day", "assay_type": "functional"}, "L1210 [21]": {"system": "L1210", "test": "Median survival time at a compound dose of 25 mg/Kg, in mice bearing L1210 cells on days 1 and 5", "assay_type": "functional, Mus musculus"}, "Mus musculus [22]": {"system": "Mus musculus", "test": "as §1", "assay_type": "functional"}, "L1210 [23]": {"system": "L1210", "test": "Median survival time at a compound dose of 200 mg/kg, in mice bearing L1210 cells on days 1 and 5; Toxic", "assay_type": "functional, organism-based", "design": "dose 200 mg/kg", "conditions": "Mus musculus"}, "[24]": {"test": "The number of mice survived to that of total at a dose of 50 mg/Kg on 30th day", "assay_type": "functional"}, "Mus musculus [25]": {"system": "Mus musculus", "test": "Ratio of the median survival time (treated(T) versus control(C)) at a dose of 25 mg/Kg on days 1 and 5", "assay_type": "functional"}, "L1210 [26]": {"system": "L1210", "test": "Ratio of the median survival time (treated(T) versus control(C)) at a dose of 50x2 mg/kgxdays, on days 1 and 5", "assay_type": "functional, organism-based", "conditions": "Mus musculus"}, "L1210 [27]": {"system": "L1210", "test": "Ratio of the median survival time (treated(T) versus control(C)) at a dose of 800 mg/kg, on days 1 and 5", "assay_type": "functional, organism-based", "design": "dose 800 mg/kg", "conditions": "Mus musculus"}, "L1210 [28]": {"system": "L1210", "test": "as §2", "assay_type": "functional", "conditions": "Mus musculus"}, "[29]": {"test": "The number of mice survived to that of total at a dose of 400 mg/kg on 30th day; 0/5", "assay_type": "functional, organism-based", "design": "dose 400 mg/kg"}, "L1210 [30]": {"system": "L1210", "test": "Median survival time at a compound dose of 400 mg/kg, in mice bearing L1210 cells on days 1 and 5", "assay_type": "functional, organism-based", "design": "dose 400 mg/kg", "conditions": "Mus musculus"}, "L1210 [31]": {"system": "L1210", "test": "Median survival time at a compound dose of 800 mg/kg (administered on days 1 & 5) in mice bearing L1210 cells", "assay_type": "functional, organism-based", "design": "dose 800 mg/kg", "conditions": "Mus musculus"}, "[32]": {"test": "The number of mice survived to that of total at a dose of 800 mg/kg on 30th day; 0/5", "assay_type": "functional, organism-based", "design": "dose 800 mg/kg"}, "L1210 [33]": {"system": "L1210", "test": "Ratio of the median survival time (treated(T) versus control(C)) at a dose of 400 mg/kg, on days 1 and 5", "assay_type": "functional, organism-based", "design": "dose 400 mg/kg", "conditions": "Mus musculus"}, "[34]": {"test": "The number of mice survived to that of total at a dose of 100 mg/kg on 30th day; 0/5", "assay_type": "functional, organism-based", "design": "dose 100 mg/kg"}, "L1210 [35]": {"system": "L1210", "test": "Ratio of the median survival time (treated(T) versus control(C)) at a dose of 100x2 mg/kgxdays, on days 1 and 5", "assay_type": "functional, organism-based", "conditions": "Mus musculus"}},
  "note": "pIC50: −log10 of the molar value.",
  "data": [
    {"compound": "Nc1nc([SeH])c2ncn(C3O[C@H](CO)[C@H](O)[C@@H]3O)c2n1", "note": "(stereo partly drawn)", "values": [
      {"measurement": "T/C", "setting": "L1210 [1]", "result": 144.4, "unit": "%"},
      {"measurement": "Median survival time", "setting": "L1210 [2]", "result": 13, "unit": "days"},
      {"measurement": "T/C", "setting": "L1210 [3]", "result": 144.4, "unit": "%"},
      {"measurement": "T/C", "setting": "L1210 [4]", "result": 166.7, "unit": "%"},
      {"measurement": "Median survival time", "setting": "L1210 [5]", "result": 9, "unit": "days"},
      {"measurement": "Ratio", "setting": "[6]", "result": 0},
      {"measurement": "Ratio", "setting": "[7]", "result": 0},
      {"measurement": "Median survival time", "setting": "L1210 [8]", "result": 15, "unit": "days"},
      {"measurement": "Ratio", "setting": "[9]", "result": 0},
      {"measurement": "Median survival time", "setting": "L1210 [10]", "result": 13, "unit": "days"}
    ]},
    {"compound": "Nc1nc([SeH])c2[nH]cnc2n1", "values": [
      {"measurement": "Median survival time", "setting": "L1210 [11]", "result": ">30", "unit": "days"},
      {"measurement": "pIC50", "setting": "L1210 [12]", "result": 8.38},
      {"measurement": "T/C", "setting": "L1210 [1]", "result": 200, "unit": "%"},
      {"measurement": "T/C", "setting": "L1210 [13]", "result": ">300", "unit": "%"},
      {"measurement": "T/C", "setting": "L1210 [14]", "result": 100, "unit": "%"},
      {"measurement": "Ratio", "setting": "[15]", "result": 3},
      {"measurement": "Ratio", "setting": "[16]", "result": 1},
      {"measurement": "Median survival time", "setting": "L1210 [5]", "result": 9, "unit": "days"},
      {"measurement": "Ratio", "setting": "[17]", "result": 0},
      {"measurement": "Median survival time", "setting": "L1210 [10]", "result": 18, "unit": "days"}
    ]},
    {"compound": "Nc1nc2[nH]cnc2c(=S)[nH]1", "note": "[THIOGUANINE]", "values": [
      {"measurement": "Median survival time", "setting": "L1210 [11]", "result": 10, "unit": "days"},
      {"measurement": "Ratio", "setting": "[18]", "result": 4},
      {"measurement": "T/C", "setting": "Mus musculus [19]", "result": 100, "unit": "%"},
      {"measurement": "Ratio", "setting": "[20]", "result": 0},
      {"measurement": "T/C", "setting": "L1210 [14]", "result": 111, "unit": "%"},
      {"measurement": "Median survival time", "setting": "L1210 [21]", "result": ">30", "unit": "days"},
      {"measurement": "T/C", "setting": "Mus musculus [22]", "result": 120, "unit": "%"},
      {"measurement": "Median survival time", "setting": "L1210 [5]", "result": 10, "unit": "days"},
      {"measurement": "Median survival time", "setting": "L1210 [23]", "result": "Toxic"},
      {"measurement": "Ratio", "setting": "[17]", "result": 0},
      {"measurement": "Median survival time", "setting": "L1210 [10]", "result": 12, "unit": "days"},
      {"measurement": "Ratio", "setting": "[24]", "result": 0},
      {"measurement": "T/C", "setting": "Mus musculus [25]", "result": ">300", "unit": "%"}
    ]},
    {"compound": "O=c1[nH]c(=S)c2nc[nH]c2[nH]1", "values": [
      {"measurement": "pIC50", "setting": "L1210 [12]", "result": 4.97}
    ]},
    {"compound": "2-(2-Amino-6-selanyl-purin-9-yl)-5-hydroxymethyl-tetrahydro-furan-3,4-diol platinum complex", "values": [
      {"measurement": "T/C", "setting": "L1210 [26]", "result": 133, "unit": "%"},
      {"measurement": "T/C", "setting": "L1210 [27]", "result": 156, "unit": "%"},
      {"measurement": "Median survival time", "setting": "L1210 [28]", "result": 11, "unit": "days"},
      {"measurement": "Ratio", "setting": "[29]", "result": 0},
      {"measurement": "Median survival time", "setting": "L1210 [30]", "result": 12, "unit": "days"},
      {"measurement": "Median survival time", "setting": "L1210 [31]", "result": 14, "unit": "days"},
      {"measurement": "Median survival time", "setting": "L1210 [5]; Mus musculus", "result": 9, "unit": "days"},
      {"measurement": "Ratio", "setting": "[7]", "result": 0},
      {"measurement": "Ratio", "setting": "[32]", "result": 0},
      {"measurement": "Ratio", "setting": "[17]", "result": 0},
      {"measurement": "T/C", "setting": "L1210 [33]", "result": 133, "unit": "%"},
      {"measurement": "Median survival time", "setting": "L1210 [10]; Mus musculus", "result": 12, "unit": "days"},
      {"measurement": "Ratio", "setting": "[34]", "result": 0},
      {"measurement": "T/C", "setting": "L1210 [35]", "result": 111, "unit": "%"}
    ]}
  ]
}
